Source: patent US11466013B2 (Betta Pharmaceuticals Co., LTD, priority 2018, dated 2022)

Experiments:
[1] = test system: COLO205 cells; assay: Cell proliferation assay (COLO205), Cell-titer Glo; type: cell-based
Experimental: COLO205 cells were spread into a 96-well plate at 135 μL/well at 2000 cells. After incubating overnight, compound solutions of gradient concentration was prepared, and added 15 μL of DMSO solution of the test compound of each concentration to the cells of each well. The final concentration of the compound was 30000, 10000, 3333.3, 1111.1, 370.4, 123.5, 41.2, 13.7, 4.6, 0 nM (the final concentration of DMSO was 0.5%). 5% CO2 was incubated for 120 h at 37° C. 50 μL of Cell-titer Glo working solution was added to each well, shaked and mixed, and incubated at room temperature for 10 minutes. The multi-functional microplate reader read the luminescence value, and converted the luminescence value reading into inhibition percentage. Inhibition percentage=(maximum value−reading)/(maximum value−minimum value)*100.
The “maximum value” was the DMSO control, the “minimum value” indicates the cell-free control group.
(§1) Graphpad Prism software was used to perform curve fitting and obtain IC50 value.

[2] = target: ERK1 (Homo sapiens, UniProt P27361); assay: Kinase assay (Caliper, FAM-labeled peptide), ERK1; type: biochemical
Experimental: (§2) The compound was diluted to the desired concentration with DMSO, transferred 100 μL to a 96-well plate, and performed a gradient dilution 10 μL of compound from each well was taken and mixed with 90 μL of kinase buffer, and then transferred 5 μL from each well to a 384-well plate. Kinase and FAM-labeled peptide and ATP were added to 1× kinase alkaline buffer to obtain 2.5× enzyme solution and 2.5× peptide solution, 10 μL of 2.5× enzyme solution was added to the 384-well assay plate. After incubating for 10 minutes at room temperature, 10 μL of 2.5× peptide solution was added to the 384-well plate. After reacting for a specific time at […], 25 μL of termination buffer was added to stop reaction. After reading the collected data on Caliper, the data was converted to inhibition percentage. Inhibition percentage=(maximum value−conversion value)/(maximum value−minimum value)*100.
(§3) The “maximum” is the DMSO control, the “minimum” indicates the low control.
as §1

[3] = target: ERK2 (Homo sapiens, UniProt P28482); assay: Kinase assay (Caliper, FAM-labeled peptide), ERK2; type: biochemical
Experimental: as §2, §3, §1

[4] = Homo sapiens, COLO 205, 120 h incubation

ERK2, sequence (P28482 whole entry): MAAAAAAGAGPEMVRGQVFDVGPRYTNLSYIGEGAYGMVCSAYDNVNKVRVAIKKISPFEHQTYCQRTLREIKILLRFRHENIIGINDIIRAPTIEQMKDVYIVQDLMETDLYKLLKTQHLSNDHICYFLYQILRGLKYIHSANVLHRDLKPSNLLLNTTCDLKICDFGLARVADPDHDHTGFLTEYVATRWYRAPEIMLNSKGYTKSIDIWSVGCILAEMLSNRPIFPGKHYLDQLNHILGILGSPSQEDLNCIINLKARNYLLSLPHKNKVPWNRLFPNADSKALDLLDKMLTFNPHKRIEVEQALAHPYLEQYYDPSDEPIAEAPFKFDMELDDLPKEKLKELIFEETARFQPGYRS
ERK1, sequence (P27361 whole entry): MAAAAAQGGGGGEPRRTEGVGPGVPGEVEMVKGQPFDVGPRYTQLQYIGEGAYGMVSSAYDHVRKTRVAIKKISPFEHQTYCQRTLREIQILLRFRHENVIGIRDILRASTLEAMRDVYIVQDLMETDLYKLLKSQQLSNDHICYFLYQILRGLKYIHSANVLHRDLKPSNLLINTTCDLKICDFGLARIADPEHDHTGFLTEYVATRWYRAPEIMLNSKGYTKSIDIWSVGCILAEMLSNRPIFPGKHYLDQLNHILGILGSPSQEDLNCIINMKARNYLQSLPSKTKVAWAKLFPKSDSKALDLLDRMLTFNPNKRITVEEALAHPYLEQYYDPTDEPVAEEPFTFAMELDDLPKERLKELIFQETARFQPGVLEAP

SMILES	IC50 [1, 4] [nM]	IC50 [2] [nM]	IC50 [3] [nM]	IC50 ([1]; 120 h incubation) [nM]
CC(C)Nc1cc(-c2cnc(C(=O)NCc3cc(F)ccc3CO)s2)c(Cl)cn1 [Example 2, 5-(5-Chloro-2-(isopropylamino)pyridin-4-yl)-N-(5-fluoro-2-(hydroxymethyl)benzyl)thiazole-2-formamide]	77.5	1	0.9	–
CC(C)Nc1cc(-c2cc3n(c2)CC2(COC2)CN(Cc2ccccc2CO)C3=O)c(Cl)cn1 [Example 6, 8′-(5-Chloro-2-(isopropylamino)pyridin-4-yl)-2′-(2-(hydroxymethyl)benzyl)-2′,3-dihydro-1′H,5′H-spiro[oxetane-3,4′-pyrrolo[1,2-a][1,4]diazepine]-1′-one]	9	0.8	0.5	–
CC(C)Nc1cc(-c2cc3n(n2)CC(CO)(CCl)CN(Cc2ccccc2CO)C3=O)c(Cl)cn1 (stereo not drawn) [Example 8, 2-(5-Chloro-2-(isopropylamino)pyridin-4-yl)-7-(chloromethyl)-7-(hydroxymethyl)-5-(2-(hydroxymethyl)benzyl)-5,6,7,8-tetrahydro-4H-pyrazolo[1,5-a][1,4]diazepine-4-one]	36.1	1.3	1.4	–
COC[C@H]1Cn2cc(-c3cc(Nc4c(F)cnn4C)ncc3Cl)cc2C(=O)N1Cc1cc(F)ccc1CO [Example 51, (R)-7-(5-chloro-2-((4-fluoro-1-methyl-1H-pyrazol-5-yl)amino)pyridin-4-yl)-2-(5-fluoro-2-(hydroxymethyl)benzyl)-3-(methoxymethyl)-3,4-dihydropyrrolo[1,2-a]pyrazine-1(2H)-ketone]	24.4	–	–	–
COCOC[C@H]1Cn2cc(-c3cc(Nc4ccnn4C)ncc3Cl)cc2C(=O)N1Cc1cc(F)ccc1CO [Example 53, (R)-7-(5-chloro-2-((1-methyl-1H-pyrazol-5-yl)amino)pyridin-4-yl)-2-(5-fluoro-2-(hydroxymethyl)benzyl)-3-((methoxymethoxy)methyl)-3,4-dihydropyrrolo[1,2-a]pyrazine-1(2H)-ketone]	3.9	–	–	–
COC[C@H]1Cn2cc(-c3cc(Nc4cnn(C)c4)ncc3Cl)cc2C(=O)N1Cc1cc(F)ccc1CO [Example 88, (R)-7-(5-chloro-2-((1-methyl-1h-pyrazole-4-yl)amino)pyridine-4-yl)-2-(5-fluoro-2-(hydroxymethyl)benzyl)-3-(methoxymethyl)-3,4-dihydropyrrolo[1,2-a] pyrazine-1(2H)-one]	28.8	–	1	–
COC[C@H]1Cn2cc(-c3cc(Nc4cn(C)nc4C)ncc3Cl)cc2C(=O)N1Cc1cc(F)ccc1CO [Example 89, (R)-7-(5-chloro-2-((1,3-dimethyl-1h-pyrazole-4-yl)amino)pyridine-4-yl)-2-(5-fluoro-2-(hydroxymethyl)benzyl)-3-(methoxymethyl)-3,4-dihydropyrrolo[1,2-a] pyrazin-1(2H)-one]	12	–	1.1	–
COC[C@H]1Cn2cc(-c3cc(Nc4cc(C)nn4C)ncc3Cl)cc2C(=O)N1Cc1cc(F)ccc1CO [Example 96, (R)-7-(5-chloro-2-((1,3-dimethyl-1h-pyrazole-5-yl)amino)pyridine-4-yl)-2-(5-fluoro-2-(hydroxymethyl)benzyl)-3-(methoxymethyl)-3,4-dihydropyrrolo[1,2-a] pyrazine-1(2H)-one]	11	–	1.8	–
Cc1cnc(Nc2cccc3c2OCCO3)nc1-c1cc2n(c1)CCN(Cc1cc(F)ccc1CO)C2=O [Example 135, 7-(2-((2,3-dihydrobenzo[b][1,4]dioxane-5-yl)amino)-5-methylpyrimidin-4-yl)-2-(5-fluoro-2-(hydroxymethyl)benzyl)-3,4-dihydropyrrolo[1,2-a] pyrazine-1(2H)-one]	–	1.6	0.7	–
Cc1cnc(Nc2cccc(C)c2C)nc1-c1cc2n(c1)CCN(Cc1cc(F)ccc1CO)C2=O [Example 136, 7-(2-((2,3-dimethylphenyl)amino)-5-methylpyrimidin-4-yl)-2-(5-fluoro-2-(hydroxymethyl)benzyl)-3,4-dihydropyrrolo[1,2-a] pyrazine-1(2H)-one]	–	0.9	0.4	–
Cc1cnc(Nc2ccccc2)nc1-c1cc2n(c1)CCN(Cc1cc(F)ccc1CO)C2=O [Example 137, 2-(5-fluoro-2-(hydroxymethyl)benzyl)-7-(5-methyl-2-(phenylamino)pyrimidin-4-yl)-3,4-dihydropyrrolo[1,2-a] pyrazine-1(2H)-one]	–	2.7	0.6	–
Cc1cnc(Nc2cccc3cnn(C)c23)nc1-c1cc2n(c1)CCN(Cc1cc(F)ccc1CO)C2=O [Example 140, 2-(5-fluoro-2-(hydroxymethyl)benzyl)-7-(5-methyl-2-((1-methyl-1h-indazole-7-yl)amino)pyrimidin-4-yl)-3,4-dihydropylrolo[1,2-a] pyrazine-1(2H)-one]	–	1.3	1.1	–
Cc1cnc(Nc2cccc3c2cnn3C)nc1-c1cc2n(c1)CCN(Cc1cc(F)ccc1CO)C2=O [Example 141, 2-(5-fluoro-2-(hydroxymethyl)benzyl)-7-(5-methyl-2-((1-methyl-1h-indazole-4-yl)amino)pyrimidin-4-yl)-3,4-dihydropyrrolo[1,2-a] pyrazine-1(2H)-one]	–	0.93	0.87	–
Cc1cnc(Nc2ccc(OC(C)C)nc2)nc1-c1cc2n(c1)CCN(Cc1cc(F)ccc1CO)C2=O [Example 159, 2-(5-fluoro-2-(hydroxymethyl)benzyl)-7-(2-((6-isopropoxypyridin-3-yl)amino) 5-methylpyrimidin-4-yl)-3,4-dihydropyrrolo[1,2-a] pyrazine-1(2H)-one]	–	1.9	1.7	–
Cn1nccc1Nc1ncc(C(F)(F)F)c(-c2cc3n(c2)CCN(Cc2cc(F)ccc2CO)C3=O)n1 [Example 164, 2-(5-fluoro-2-(hydroxymethyl)benzyl)-7-(2-((1-methyl-1h-pyrazole-5-yl)amino)-5-(trifluoromethyl)pyrimidin-4-yl)-3,4-dihydropyrrolo[1,2-a] pyrazine-1(2H)-one]	28.9	–	0.66	–
CC(C)Nc1cc(-c2cc3n(c2)CCN(C(CO)c2cccc(C(F)(F)F)c2)C3=O)c(Cl)cn1 (stereo not drawn) [Example D1, reference compound]	–	–	–	7330
CC(C)Nc1cc(-c2cnn(C(=O)N[C@H](CO)c3cccc(Cl)c3)c2)c(Cl)cn1 [Example D2, (S)-4-(5-chloro-2-(isopropylamino)pyridin-4-yl)-N′-(1-(3-chlorophenyl)-2-hydroxyethyl)-1H-pyrazole-1-carboxamide, reference compound]	–	–	–	12200

More lines, main results first:

IC50 [1, 4] [nM]	IC50 [2] [nM]	IC50 [3] [nM]	SMILES	IC50 ([1]; 120 h incubation) [nM]
252	–	–	Cc1cnc(Nc2ccnn2C)nc1-c1c[nH]c(C(=O)NCc2cccc(F)c2)c1 [Example D4, N-(3-fluorobenzyl)-4-(5-methyl-2-((1-methyl-1h-pyrazole-5-yl)amino)pyrimidin-4-yl)-1h-pyrrole-2-formamide, reference compound]	–
93.7	–	–	Cc1cnc(Nc2ccnn2C)nc1-c1cc2n(c1)CCN(Cc1cccc(F)c1)C2=O [Example D5, 2-(3-fluorobenzyl)-7-(5-methyl-2-((1-methyl-1h-pyrazole-5-yl)amino)pyrimidin-4-yl)-3,4-dihydropyrrolo[1,2-a] pyrazine-1(2H)-one, reference compound]	–
1630	–	–	CC(C)Nc1cc(-c2cc3n(c2)CCN(Cc2cccc(F)c2)C3=O)c(Cl)cn1 [Example D8, 7-(5-chloro-2-(isopropylamino)pyridin-4-yl)-2-(3-fluorobenzyl)-3,4-dihydropyrrolo[1,2-a] pyrazine-1(2H)-one, reference compound]	–
